Test: In vitro metabolic stability in rat hepatocytes (including calculation of hepatic in vivo blood clearance)
Format: in vitro ADME
Settings: Han Wistar, hepatocytes (freshly isolated, suspension), read-out: CL (hepatic in vivo blood clearance) (converted)
Protocol: Investigation of In Vitro Metabolic Stability in Rat Hepatocytes (Including Calculation of Hepatic In Vivo Blood Clearance (CL))
Hepatocytes from Han Wistar rats were isolated via a 2-step perfusion method. After perfusion, the liver was carefully removed from the rat: the liver capsule was opened and the hepatocytes were gently shaken out into a Petri dish with ice-cold WME. The resulting cell suspension was filtered through sterile gaze in 50 ml falcon tubes and centrifuged at 50×g for 3 min at room temperature. The cell pellet was resuspended in 30 ml WME and centrifuged through a Percoll® gradient for 2 times at 100×g. The hepatocytes were washed again with Williams' medium E (WME) and resuspended in medium containing 5% FCS. Cell viability was determined by trypan blue exclusion.
For the metabolic stability assay liver cells were distributed in WME containing 5% FCS to glass vials at a density of 1.0×10^6 vital cells/ml. The test compound was added to a final concentration of 1 μM. During incubation, the hepatocyte suspensions were continuously shaken and aliquots were taken at 2, 8, 16, 30, 45 and 90 min, to which equal volumes of cold methanol were immediately added.
Samples were frozen at −20° C. over night, after subsequently centrifuged for 15 minutes at 3000 rpm and the supernatant was analyzed with an Agilent 1200 HPLC-system with LCMS/MS detection.
The half-life of a test compound was determined from the concentration-time plot. From the half-life the intrinsic clearances were calculated. Together with the additional parameters liver blood flow, amount of liver cells in vivo and in vitro. The hepatic in vivo blood clearance (CL) and the maximal oral bioavailability (Fmax) was calculated. The following parameter values were used: Liver blood flow—4.2 L/h/kg rat; specific liver weight—32 g/kg rat body weight; liver cells in vivo—1.1×10^8 cells/g liver, liver cells in vitro—0.5×10^6 ml.

| SMILES | CLhep predicted at 1 μM |
| --- | --- |
| Cc1cc(-c2cnc3c(NCCC(F)(F)F)cc(C(F)(F)c4cccc(F)c4F)nn23)ccc1C(=O)NC1CC1 [Example 18, N-Cyclopropyl-4-{6-[(2,3-difluorophenyl)(difluoro)methyl]-8-[(3,3,3-trifluoropropyl)amino]imidazo[1,2-b]pyridazin-3-yl}-2-methylbenzamide] | 1 L/h/kg |
| COc1ccc(C(=O)c2cc(NCCC(F)(F)F)c3ncc(-c4ccc(C(=O)NC5CC5)c(C)c4)n3n2)cc1 [Example 9, N-Cyclopropyl-4-{6-(4-methoxybenzoyl)-8-[(3,3,3-trifluoropropyl)amino]imidazo[1,2-b]pyridazin-3-yl}-2-methylbenzamide] | 1.2 L/h/kg |
| Cc1cc(-c2cnc3c(NCCC(F)(F)F)cc(C(O)c4cccc(F)c4O)nn23)ccc1C(=O)NC1CC1 (racemic) [Example 3, (RS)—N-Cyclopropyl-4-{6-[(3-fluoro-2-hydroxyphenyl)(hydroxy)methyl]-8-[(3,3,3-trifluoropropyl)amino]imidazo[1,2-b]pyridazin-3-yl}-2-methylbenzamide] | 3.4 L/h/kg |
| COc1ccc(C(=O)c2cc(NCCC(F)(F)F)c3ncc(-c4ccc(C(=O)NC5CC5)c(C)c4)n3n2)cc1F [Example 13, N-Cyclopropyl-4-{6-(3-fluoro-4-methoxybenzoyl)-8-[(3,3,3-trifluoropropyl)amino]imidazo[1,2-b]pyridazin-3-yl}-2-methylbenzamide] | 1.1 L/h/kg |
| Cc1cc(-c2cnc3c(NCCC(F)(F)F)cc(C(O)c4cc(F)ccc4F)nn23)ccc1C(=O)NC1CC1 (racemic) [Example 11, (RS)—N-Cyclopropyl-4-{6-[(2,5-difluorophenyl)(hydroxy)methyl]-8-[(3,3,3-trifluoropropyl)amino]imidazo[1,2-b]pyridazin-3-yl}-2-methylbenzamide] | 2.3 L/h/kg |
| C=C(c1cc(NCCC(F)(F)F)c2ncc(-c3ccc(C(=O)NC4CC4)c(C)c3)n2n1)c1cccc(F)c1F [Example 15, N-Cyclopropyl-4-{6-[1-(2,3-difluorophenyl)vinyl]-8-[(3,3,3-trifluoropropyl)amino]imidazo[1,2-b]pyridazin-3-yl}-2-methylbenzamide] | 2 L/h/kg |
| COc1ccc(C(F)(F)c2cc(NCCC(F)(F)F)c3ncc(-c4ccc(C(=O)NC5CC5)c(C)c4)n3n2)cc1F [Example 2, N-Cyclopropyl-4-{6-[difluoro(3-fluoro-4-methoxyphenyl)methyl]-8-[(3,3,3-trifluoropropyl)amino]imidazo[1,2-b]pyridazin-3-yl}-2-methylbenzamide] | 1.5 L/h/kg |
| C=C(c1ccc(OC)c(F)c1)c1cc(NCCC(F)(F)F)c2ncc(-c3ccc(C(=O)NC4CC4)c(C)c3)n2n1 [Example 1, N-Cyclopropyl-4-{6-[1-(3-fluoro-4-methoxyphenyl)ethenyl]-8-[(3,3,3-trifluoropropyl)amino]imidazo[1,2-b]pyridazin-3-yl}-2-methylbenzamide] | 2.6 L/h/kg |
| C=C(c1ccc(OC)cc1)c1cc(NCCC(F)(F)F)c2ncc(-c3ccc(C(=O)NC4CC4)c(C)c3)n2n1 [Example 10, N-Cyclopropyl-4-{6-[1-(4-methoxyphenyl)vinyl]-8-[(3,3,3-trifluoropropyl)amino]imidazo[1,2-b]pyridazin-3-yl}-2-methylbenzamide] | 2.2 L/h/kg |
| Cc1cc(-c2cnc3c(NCCC(F)(F)F)cc(C(=O)c4cccc(F)c4F)nn23)ccc1C(=O)NC1CC1 [Example 14, N-Cyclopropyl-4-{6-(2,3-difluorobenzoyl)-8-[(3,3,3-trifluoropropyl)amino]imidazo[1,2-b]pyridazin-3-yl}-2-methylbenzamide] | 2.1 L/h/kg |
| Cc1cc(-c2cnc3c(NCCC(F)(F)F)cc(C(C)(O)c4cccc(F)c4O)nn23)ccc1C(=O)NC1CC1 (racemic) [Example 4, (RS)—N-Cyclopropyl-4-{6-[1-(3-fluoro-2-hydroxyphenyl)-1-hydroxyethyl]-8-[(3,3,3-trifluoropropyl)amino]imidazo[1,2-b]pyridazin-3-yl}-2-methylbenzamide] | 2.7 L/h/kg |
| COc1ccc(C(F)(F)c2cc(NCCC(F)(F)F)c3ncc(-c4ccc(C(=O)NC5CC5)c(C)c4)n3n2)cc1 [Example 16, N-Cyclopropyl-4-{6-[difluoro(4-methoxyphenyl)methyl]-8-[(3,3,3-trifluoropropyl)amino]imidazo[1,2-b]pyridazin-3-yl}-2-methylbenzamide] | 1.9 L/h/kg |
| Cc1cc(-c2cnc3c(NCCC(F)(F)F)cc(C4(c5cccc(F)c5F)CC4)nn23)ccc1C(=O)NC1CC1 [Example 17, N-Cyclopropyl-4-{6-[1-(2,3-difluorophenyl)cyclopropyl]-8-[(3,3,3-trifluoropropyl)amino]imidazo[1,2-b]pyridazin-3-yl}-2-methylbenzamide] | 2.1 L/h/kg |
| Cc1cc(-c2cnc3c(NCCC(F)(F)F)cc(C4(c5cc(F)ccc5O)CC4)nn23)ccc1C(=O)NC1CC1 [Example 23, N-cyclopropyl-4-{6-[1-(5-fluoro-2-hydroxyphenyl)cyclopropyl]-8-[(3,3,3-trifluoropropyl)amino]imidazo[1,2-b]pyridazin-3-yl}-2-methylbenzamide] | 2.5 L/h/kg |
| C=C(c1cccc(OC)c1)c1cc(NCCC(F)(F)F)c2ncc(-c3ccc(C(=O)NC4CC4)c(C)c3)n2n1 [Example 8, N-Cyclopropyl-4-{6-[1-(3-methoxyphenyl)vinyl]-8-[(3,3,3-trifluoropropyl)amino]imidazo[1,2-b]pyridazin-3-yl}-2-methylbenzamide] | 1.8 L/h/kg |
| COc1cccc(C(=O)c2cc(NCCC(F)(F)F)c3ncc(-c4ccc(C(=O)NC5CC5)c(C)c4)n3n2)c1 [Example 7, N-Cyclopropyl-4-{6-(3-methoxybenzoyl)-8-[(3,3,3-trifluoropropyl)amino]imidazo[1,2-b]pyridazin-3-yl}-2-methylbenzamide] | 3.1 L/h/kg |

Second part, the molecule after the results:

| CLhep predicted at 1 μM | SMILES |
| --- | --- |
| 2.2 L/h/kg | C=C(c1cccc(F)c1)c1cc(NCCC(F)(F)F)c2ncc(-c3ccc(C(=O)NC4CC4)c(C)c3)n2n1 [Example 24, N-cyclopropyl-4-{6-[1-(3-fluorophenyl)ethenyl]-8-[(3,3,3-trifluoropropyl)amino]imidazo[1,2-b]pyridazin-3-yl}-2-methylbenzamide] |
| 2 L/h/kg | Cc1cc(-c2cnc3c(NCCC(F)(F)F)cc(C4(c5cccc(F)c5)CC4)nn23)ccc1C(=O)NC1CC1 [Example 25, N-cyclopropyl-4-{6-[1-(3-fluorophenyl)cyclopropyl]-8-[(3,3,3-trifluoropropyl)amino]imidazo[1,2-b]pyridazin-3-yl}-2-methylbenzamide] |
| 1.4 L/h/kg | Cc1cc(-c2cnc3c(NCCC(F)(F)F)cc(C(=O)c4cc(F)ccc4F)nn23)ccc1C(=O)NC1CC1 [Example 12, N-Cyclopropyl-4-{6-(2,5-difluorobenzoyl)-8-[(3,3,3-trifluoropropyl)amino]imidazo[1,2-b]pyridazin-3-yl}-2-methylbenzamide] |
| 3.4 L/h/kg | COc1cccc(Cc2cc(NCCC(F)(F)F)c3ncc(-c4ccc(C(=O)NC5CC5)c(C)c4)n3n2)c1 [Comparative Example 4, N-cyclopropyl-4-{6-(3-methoxybenzyl)-8-[(3,3,3-trifluoropropyl)amino]imidazo[1,2-b]pyridazin-3-yl}-2-methylbenzamide, reference compound] |
| 3 L/h/kg | COc1ccc(Cc2cc(NCCC(F)(F)F)c3ncc(-c4ccc(C(=O)NC5CC5)c(C)c4)n3n2)cc1F [Comparative Example 1, N-Cyclopropyl-4-{6-(3-fluoro-4-methoxybenzyl)-8-[(3,3,3-trifluoropropyl)amino]imidazo[1,2-b]pyridazin-3-yl}-2-methylbenzamide, reference compound] |
| 3 L/h/kg | C=C(c1cc(NCCC(F)(F)F)c2ncc(-c3ccc(C(=O)NC4CC4)c(C)c3)n2n1)c1cc(F)ccc1O [Example 22, N-cyclopropyl-4-{6-[1-(5-fluoro-2-hydroxyphenyl)ethenyl]-8-[(3,3,3-trifluoropropyl)amino]imidazo[1,2-b]pyridazin-3-yl}-2-methylbenzamide] |
| 2.7 L/h/kg | COc1ccc(Cc2cc(NCCC(F)(F)F)c3ncc(-c4ccc(C(=O)NC5CC5)c(C)c4)n3n2)cc1 [Comparative Example 5, N-Cyclopropyl-4-{6-(4-methoxybenzyl)-8-[(3,3,3-trifluoropropyl)amino]imidazo[1,2-b]pyridazin-3-yl}-2-methylbenzamide, reference compound] |
| 2.4 L/h/kg | Cc1cc(-c2cnc3c(NCCC(F)(F)F)cc(Cc4cccc(F)c4)nn23)ccc1C(=O)NC1CC1 [Comparative Example 3, N-Cyclopropyl-4-{6-(3-fluorobenzyl)-8-[(3,3,3-trifluoropropyl)amino]imidazo[1,2-b]pyridazin-3-yl}-2-methylbenzamide, reference compound] |
| 4.1 L/h/kg | Cc1cc(-c2cnc3c(NCCC(F)(F)F)cc(Cc4cccc(F)c4O)nn23)ccc1C(=O)NC1CC1 [Comparative Example 2, N-Cyclopropyl-4-{6-(3-fluoro-2-hydroxybenzyl)-8-[(3,3,3-trifluoropropyl)amino]imidazo[1,2-b]pyridazin-3-yl}-2-methylbenzamide, reference compound] |

From patent US9512126B2, “Substituted imidazopyridazines” (Bayer Intellectual Property GmbH, priority 2012, dated 2016)
